In patent US8664220B2, “Polycyclic compounds as lysophosphatidic acid receptor antagonists” (Amira Pharmaceuticals, Inc., priority 2009, dated 2014):

What follows are compounds tested against T1, human LPA1 (Homo sapiens, UniProt Q92633) (assay: LPA1 calcium flux assay). Conditions: human LPA1 expressing CHO cells, stimulated with 10 nM LPA; read-out: HLPA1 Ca Flux IC50.
T1 construct: the full-length cDNA for human LPA1 was obtained by PCR of the reverse transcription reaction; expressed in transfected cells
Format: cell-based
In short: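 CHO cells stably expressing human LPA1, serum-starved overnight and loaded with Calcium 4 dye in HBSS/20 mM Hepes/0.3% fatty-acid-free HSA, 1 h at 37 °C. Compounds pre-incubated 30 min at room temperature, then 10 nM LPA added; intracellular Ca2+ flux measured and IC50 from titration curves.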

T1 sequence (Q92633 whole entry): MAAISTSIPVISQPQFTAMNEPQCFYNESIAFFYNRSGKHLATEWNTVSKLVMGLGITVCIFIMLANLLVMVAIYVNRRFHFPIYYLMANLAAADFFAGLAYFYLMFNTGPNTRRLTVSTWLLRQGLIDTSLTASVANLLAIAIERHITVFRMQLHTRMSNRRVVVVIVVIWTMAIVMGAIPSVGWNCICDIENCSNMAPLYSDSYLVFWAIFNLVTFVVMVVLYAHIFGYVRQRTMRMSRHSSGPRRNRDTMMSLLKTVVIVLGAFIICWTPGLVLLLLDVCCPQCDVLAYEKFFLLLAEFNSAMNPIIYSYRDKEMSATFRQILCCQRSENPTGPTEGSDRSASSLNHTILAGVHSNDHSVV

SMILES	IC50 [µM]
Cc1noc(-c2ccc(-c3ccc(CC(=O)O)cc3)cc2)c1Nc1cccc(-c2ccccc2)n1 [Compound 1-76, {4′-[3-Methyl-4-(6-phenyl-pyridin-2-ylamino)-isoxazol-5-yl]-biphenyl-4-yl}-acetic acid]	< 0.3
Cc1noc(-c2ccc(-c3ccc(C4(C(=O)O)CC4)cc3)cc2)c1Nc1cccc(-c2cccc(C(F)(F)F)c2)n1 [Compound 1-77, 1-(4′-{3-Methyl-4-[6-(3-trifluoromethyl-phenyl)-pyridin-2-ylamino]-isoxazol-5-yl}-biphenyl-4-yl)-cyclopropanecarboxylic acid]	< 0.3
Cc1noc(-c2ccc(-c3ccc(C4(C(=O)O)CC4)cc3)cc2)c1Nc1cncc(-c2ccccc2)n1 [Compound 1-78, 1-{4′-[3-Methyl-4-(6-phenyl-pyrazin-2-ylamino)-isoxazol-5-yl]-biphenyl-4-yl}-cyclopropanecarboxylic acid]	< 0.3
Cc1noc(-c2ccc(-c3ccc(C4(C(=O)O)CC4)cc3)cc2)c1Nc1cccc(Oc2ccccc2)n1 [Compound 1-79, 1-{4′-[3-Methyl-4-(6-phenoxy-pyridin-2-ylamino)-isoxazol-5-yl]-biphenyl-4-yl}-cyclopropanecarboxylic acid]	< 0.3
Cc1noc(-c2ccc(-c3ccc(C4(C(=O)O)CC4)cc3)cc2)c1Nc1nnc(-c2ccccc2)o1 [Compound 1-80, 1-{4′-[3-Methyl-4-(5-phenyl-[1,3,4]oxadiazol-2-ylamino)-isoxazol-5-yl]-biphenyl-4-yl}-cyclopropanecarboxylic acid]	< 0.3
Cc1noc(-c2ccc(-c3ccc(CCC(=O)O)cc3)cc2)c1Nc1nnc(-c2ccccc2)o1 [Compound 1-81, 3-{4′-[3-Methyl-4-(5-phenyl[1,3,4]oxadiazol-2-ylamino)-isoxazol-5-yl]-biphenyl-4-yl}-propionic acid]	< 0.3
Cc1noc(-c2ccc(-c3ccc(C4(C(=O)O)CC4)cc3)cc2)c1Nc1cccc(Oc2ccccc2)c1 [Compound 1-82, 1-{4′-[3-Methyl-4-(3-phenoxy-phenylamino)-isoxazol-5-yl]-biphenyl-4-yl}-cyclopropanecarboxylic acid]	< 0.3
Cc1noc(-c2ccc(-c3ccc(C4(C(=O)O)CC4)cc3)cc2)c1Nc1nnc(Cc2ccccc2)o1 [Compound 1-83, 1-{4′-[4-(5-Benzyl-[1,3,4]oxadiazol-2-ylamino)-3-methyl-isoxazol-5-yl]-biphenyl-4-yl}-cyclopropanecarboxylic acid]	< 0.3
Cc1noc(-c2ccc(-c3ccc(C4(C(=O)O)CC4)cc3)cc2)c1Nc1cccc(Cc2ccccc2F)n1 [Compound 1-84, 1-(4′-{4-[6-(2-Fluoro-benzyl)-pyridin-2-ylamino]-3-methyl-isoxazol-5-yl}-biphenyl-4-yl)-cyclopropanecarboxylic acid]	< 0.3
Cc1noc(-c2ccc(-c3ccc(C4(C(=O)O)CC4)cc3)cc2)c1Nc1cccc(Cc2cccc(F)c2)n1 [Compound 1-85, 1-(4′-{4-[6-(3-Fluoro-benzyl)-pyridin-2-ylamino]-3-methyl-isoxazol-5-yl}-biphenyl-4-yl)-cyclopropanecarboxylic acid]	< 0.3
Cc1noc(-c2ccc(-c3ccc(C4(C(=O)O)CC4)cc3)cc2)c1Nc1cccc(Cc2ccc(F)cc2)n1 [Compound 1-86, 1-(4′-{4-[6-(4-Fluoro-benzyl)-pyridin-2-ylamino]-3-methyl-isoxazol-5-yl}-biphenyl-4-yl)-cyclopropanecarboxylic acid]	< 0.3
CCOc1ccc(-c2cccc(Nc3c(C)noc3-c3ccc(-c4ccc(C5(C(=O)O)CC5)cc4)cc3)n2)cn1 [Compound 1-87, 1-{4′-[4-(6′-Ethoxy-[2,3]bipyridinyl-6-ylamino)-3-methyl-isoxazol-5-yl]-biphenyl-4-yl}-cyclopropanecarboxylic acid]	0.3 to 1
COc1cccc(-c2cccc(Nc3c(C)noc3-c3ccc(-c4ccc(C5(C(=O)O)CC5)cc4)cc3)n2)c1 [Compound 1-88, 1-(4′-{4-[6-(3-Methoxy-phenyl)-pyridin-2-ylamino]-3-methyl-isoxazol-5-yl}-biphenyl-4-yl)-cyclopropanecarboxylic acid]	< 0.3
COc1ncccc1-c1cccc(Nc2c(C)noc2-c2ccc(-c3ccc(C4(C(=O)O)CC4)cc3)cc2)c1 [Compound 1-89, 1-(4′-{4-[3-(2-Methoxy-pyridin-3-yl)-phenylamino]-3-methyl-isoxazol-5-yl}-biphenyl-4-yl)-cyclopropanecarboxylic acid]	< 0.3
Cc1noc(-c2ccc(-c3ccc(C4(C(=O)O)CC4)cc3)cc2)c1Nc1cccc(Cc2ccccc2)c1 [Compound 1-90, 1-{4′-[4-(3-Benzyl-phenylamino)-3-methyl-isoxazol-5-yl]-biphenyl-4-yl}-cyclopropanecarboxylic acid]	< 0.3
Cc1noc(-c2ccc(-c3ccc(C4(C(=O)O)CC4)cc3)cc2)c1Nc1cccc(-c2ccccc2C#N)n1 [Compound 1-91, 1-(4′-{4-[6-(2-Cyano-phenyl)-pyridin-2-ylamino]-3-methyl-isoxazol-5-yl}-biphenyl-4-yl)-cyclopropanecarboxylic acid]	< 0.3

SMILES	IC50 [µM]
COc1ccc(-c2cccc(Nc3c(C)noc3-c3ccc(-c4ccc(C5(C(=O)O)CC5)cc4)cc3)n2)cc1 [Compound 1-92, 1-(4′-{4-[6-(4-Methoxy-phenyl)-pyridin-2-ylamino]-3-methyl-isoxazol-5-yl}-biphenyl-4-yl)-cyclopropanecarboxylic acid]	< 0.3
Cc1noc(-c2ccc(-c3ccc(C4(C(=O)O)CC4)cc3)cc2)c1Nc1cccc(-c2cccc(F)c2)n1 [Compound 1-93, 1-(4′-{4-[6-(3-Fluoro-phenyl)-pyridin-2-ylamino]-3-methyl-isoxazol-5-yl}-biphenyl-4-yl)-cyclopropanecarboxylic acid]	< 0.3
COc1ccccc1-c1cccc(Nc2c(C)noc2-c2ccc(-c3ccc(C4(C(=O)O)CC4)cc3)cc2)n1 [Compound 1-94, 1-(4′-{4-[6-(2-Methoxy-phenyl)-pyridin-2-ylamino]-3-methyl-isoxazol-5-yl}-biphenyl-4-yl)-cyclopropanecarboxylic acid]	< 0.3
Cc1noc(-c2ccc(-c3ccc(C4(C(=O)O)CC4)cc3)cc2)c1Nc1cccc(-c2ccccc2F)n1 [Compound 1-95, 1-(4′-{4-[6-(2-Fluoro-phenyl)-pyridin-2-ylamino]-3-methyl-isoxazol-5-yl}-biphenyl-4-yl)-cyclopropanecarboxylic acid]	< 0.3
Cc1noc(-c2ccc(-c3ccc(C4(C(=O)O)CC4)cc3)cc2)c1Nc1cccc(-c2ccccc2C(F)(F)F)n1 [Compound 1-96, 1-(4′-{3-methyl-4-[6-(2-trifluoromethyl-phenyl)-pyridin-2-ylamino]-isoxazol-5-yl}-biphenyl-4-yl)-cyclopropanecarboxylic acid]	< 0.3
COc1ncccc1-c1cccc(Nc2c(C)noc2-c2ccc(-c3ccc(C4(C(=O)O)CC4)cc3)cc2)n1 [Compound 1-97, 1-{4′-[4-(2′-Methoxy-[2,3′]bipyridinyl-6-ylamino)-3-methyl-isoxazol-5-yl]-biphenyl-4-yl}-cyclopropanecarboxylic acid]	< 0.3
COc1ccc(-c2cccc(Nc3c(C)noc3-c3ccc(-c4ccc(C5(C(=O)O)CC5)cc4)cc3)n2)cn1 [Compound 1-98, 1-{4′-[4-(6′-Methoxy-[2,3′]bipyridinyl-6-ylamino)-3-methyl-isoxazol-5-yl]-biphenyl-4-yl}-cyclopropanecarboxylic acid]	< 0.3
Cc1noc(-c2ccc(-c3ccc(C4(C(=O)O)CC4)cc3)cc2)c1Nc1cccc(-c2ccncc2)n1 [Compound 1-99, 1-{4′-[4-([2,4′]Bipyridinyl-6-ylamino)-3-methyl-isoxazol-5-yl]-biphenyl-4-yl}-cyclopropanecarboxylic acid]	< 0.3
Cc1noc(-c2ccc(-c3ccc(C4(C(=O)O)CC4)cc3)cc2)c1NCc1cnc(-c2ccccc2)s1 [Compound 1-100, 1-(4′-{3-Methyl-4-[(2-phenyl-thiazol-5-ylmethyl)-amino]-isoxazol-5-yl}-biphenyl-4-yl)-cyclopropanecarboxylic acid]	< 0.3
Cc1noc(-c2ccc(-c3ccc(C4(C(=O)O)CC4)cc3)cc2)c1Nc1cccc(-c2ccccc2C(F)(F)F)c1 [Compound 1-101, 1-{4′-[3-Methyl-4-(2′-trifluoromethyl-biphenyl-3-ylamino)-isoxazol-5-yl]-biphenyl-4-yl}-cyclopropanecarboxylic acid]	< 0.3
COc1ccc(-c2cccc(Nc3c(C)noc3-c3ccc(-c4ccc(C5(C(=O)O)CC5)cc4)cc3)c2)cn1 [Compound 1-102, 1-(4′-{4-[3-(6-Methoxy-pyridin-3-yl)-phenylamino]-3-methyl-isoxazol-5-yl}-biphenyl-4-yl)-cyclopropanecarboxylic acid]	< 0.3
Cc1noc(-c2ccc(-c3ccc(C4(C(=O)O)CC4)cc3)cc2)c1Nc1cccc(-c2cccnc2)c1 [Compound 1-103, 1-{4′-[3-Methyl-4-(3-pyridin-3-yl-phenylamino)-isoxazol-5-yl]-biphenyl-4-yl}-cyclopropanecarboxylic acid]	< 0.3
COc1cncc(-c2cccc(Nc3c(C)noc3-c3ccc(-c4ccc(C5(C(=O)O)CC5)cc4)cc3)c2)c1 [Compound 1-104, 1-(4′-{4-[3-(5-Methoxy-pyridin-3-yl)-phenylamino]-3-methyl-isoxazol-5-yl}-biphenyl-4-yl)-cyclopropanecarboxylic acid]	< 0.3
Cc1noc(-c2ccc(-c3ccc(C4(C(=O)O)CC4)cc3)cc2)c1Nc1cccc(N(C)c2ccccc2)n1 [Compound 1-105, 1-(4′-{3-Methyl-4-[6-(methyl-phenyl-amino)-pyridin-2-ylamino]-isoxazol-5-yl}-biphenyl-4-yl)-cyclopropanecarboxylic acid]	0.3 to 1
Cc1noc(-c2ccc(-c3ccc(C4(C(=O)O)CC4)cc3)cc2)c1Nc1cccc(N(C)c2ccccc2)c1 [Compound 1-106, 1-(4′-{3-Methyl-4-[3-(methyl-phenyl-amino)-phenylamino]-isoxazol-5-yl}-biphenyl-4-yl)-cyclopropanecarboxylic acid]	< 0.3
